This note sets out measurements from patent US7217730B2, “Method for the use of pyranoindole derivatives to treat infection with Hepatitis C virus” (Wyeth, priority 2002, dated 2007).

The target in the experiment is T1, NS5B from the BK strain (genotype 1b) (Hepatitis C virus genotype 1b, UniProt P26663).
T1 construct: NS5B from the BK strain (genotype 1b) is expressed in E. coli as a protein in which the 21 C-terminal amino acids are replaced; made in house; host or cells: E. coli
The experiment in a line: Hepatitis C polymerase inhibition, NS5B BK strain, 33P-GTP filter assay. The format is biochemical. The note with it: Table 1A; for inhibition at 20 µM: 20 μM compound, read-out: HCV pol % inh at 20 μM; for IC50: NS5B BK strain, read-out: HCV pol BK IC50. The gist of the method: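 Radiolabelled RNA synthesis was measured by filter capture and scintillation counting after EDTA stop. His-tagged, C-terminally truncated (Δ21) genotype 1b BK NS5B from E. coli, pre-exposed to compound for 15 min, copied a self-primed RNA template (~3 nM) with α-[33P]-GTP for 2 h at room temperature.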

T1 sequence (P26663 2420-2989): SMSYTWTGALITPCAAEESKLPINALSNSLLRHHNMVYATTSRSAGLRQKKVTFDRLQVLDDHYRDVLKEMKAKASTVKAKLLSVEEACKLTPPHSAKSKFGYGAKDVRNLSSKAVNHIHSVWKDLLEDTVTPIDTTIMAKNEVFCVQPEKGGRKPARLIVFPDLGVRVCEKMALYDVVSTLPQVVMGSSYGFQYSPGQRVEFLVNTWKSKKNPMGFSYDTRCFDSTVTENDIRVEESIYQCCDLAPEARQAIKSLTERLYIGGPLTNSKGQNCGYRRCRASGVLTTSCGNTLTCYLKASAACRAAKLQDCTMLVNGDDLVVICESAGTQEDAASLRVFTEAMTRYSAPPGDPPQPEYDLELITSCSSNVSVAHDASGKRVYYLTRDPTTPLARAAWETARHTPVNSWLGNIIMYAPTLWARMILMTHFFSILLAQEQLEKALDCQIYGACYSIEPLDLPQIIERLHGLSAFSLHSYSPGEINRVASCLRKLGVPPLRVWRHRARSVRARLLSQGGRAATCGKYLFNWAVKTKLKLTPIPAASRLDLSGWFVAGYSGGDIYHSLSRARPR

For the molecule `CCCCC1(CC(=O)O)OCCc2c1[nH]c1c(F)cc(C)c(Br)c21` (centres unmarked) [Example 167, (5-bromo-1-butyl-8-fluoro-6-methyl-1,3,4,9-tetrahydropyrano[3,4-b]indol-1-yl)acetic acid], the inhibition at 20 µM was determined as 80% and the IC50 is 3 µM.

On to `CCCCC1(CC(=O)O)OCCc2c1[nH]c1c(C)ccc(F)c21` (centres unmarked) [Example 144, (1-butyl-5-fluoro-8-methyl-1,3,4,9-tetrahydropyrano[3,4-b]indol-1-yl)acetic acid], for which the inhibition at 20 µM turned out to be 73% and the IC50 was 6 µM.

With `CCCCC1(CC(=O)O)OCCc2c1[nH]c1c(Cl)cc(C)c(Br)c21` (centres unmarked) [Example 177, (5-bromo-1-butyl-8-chloro-6-methyl-1,3,4,9-tetrahydropyrano[3,4-b]indol-1-yl)acetic acid], the inhibition at 20 µM turned out to be 70% and the IC50 was determined as 4 µM.

For `CCCC1(CC(=O)O)OCCc2c1[nH]c1c(F)ccc(-c3cccc(N)c3)c21` (centres unmarked) [Example 151, [5-(3-aminophenyl)-8-fluoro-1-propyl-1,3,4,9-tetrahydropyrano[3,4-b]indol-1-yl]acetic acid], the inhibition at 20 µM was 34% and the IC50 was over 20 µM.

On to `O=C(O)CC1(c2ccccc2)OCCc2c1[nH]c1c(Cl)cc(Cl)cc21` (centres unmarked) [Example 105, (6,8-dichloro-1-phenyl-1,3,4,9-tetrahydropyrano[3,4-b]indol-1-yl)acetic acid], for which the inhibition at 20 µM stood at 57% and the IC50 was over 5 µM.

As to `CC(C)C1(CC(=O)O)OCCc2c1[nH]c1c(Cl)cccc21` (centres unmarked) [Example 75, (8-chloro-1-isopropyl-1,3,4,9-tetrahydropyrano[3,4-b]indol-1-yl)acetic acid], the inhibition at 20 µM is 17% and the IC50 was over 20 µM.

As to `Cc1cc(F)c(Br)c2c3c([nH]c12)C(CC(=O)O)(c1ccc(C(=O)O)cc1)OCC3` (centres unmarked) [Example 204, 4-[5-bromo-1-(carboxymethyl)-6-fluoro-8-methyl-1,3,4,9-tetrahydropyrano[3,4-b]indol-1-yl]benzoic acid], the inhibition at 20 µM worked out at 87% and the IC50 stood at 1.2 µM.

As to `CCCCC1(CC(=O)O)OCCc2c1[nH]c1c(Cl)ccc(Cl)c21` (centres unmarked) [Example 67, (1-butyl-5,8-dichloro-1,3,4,9-tetrahydropyrano[3,4-b]indol-1-yl)acetic acid], the inhibition at 20 µM was 78% and the IC50 was 0.76 µM.

As for `CCC1(CC(=O)O)OCCc2c1[nH]c1c(C)ccc(C)c21` (centres unmarked) [Example 138, (1-ethyl-5,8-dimethyl-1,3,4,9-tetrahydropyrano[3,4-b]indol-1-yl)acetic acid], the inhibition at 20 µM was found to be 38% and the IC50 was over 20 µM.

Take `Cc1cc(Cl)c2[nH]c3c(c2c1C#N)CCOC3(CC(=O)O)c1ccc(C(=O)O)cc1` (centres unmarked) [Example 188, 4-[1-(carboxymethyl)-8-chloro-5-cyano-6-methyl-1,3,4,9-tetrahydropyrano[3,4-b]indol-1-yl]benzoic acid]: the inhibition at 20 µM is 76% and the IC50 is over 5 µM.

With `CCCC1(CC(=O)O)OCCc2c1[nH]c1c(F)ccc(I)c21` (centres unmarked) [Example 215, (8-fluoro-5-iodo-1-propyl-1,3,4,9-tetrahydropyrano[3,4-b]indol-1-yl)acetic acid], the inhibition at 20 µM was 86% and the IC50 came to 0.32 µM.

Regarding `O=C(O)CC1(c2ccoc2)OCCc2c1[nH]c1c(Cl)ccc(C(F)(F)F)c21` (centres unmarked) [Example 136, [8-chloro-1-(3-furyl)-5-(trifluoromethyl)-1,3,4,9-tetrahydropyrano[3,4-b]indol-1-yl]acetic acid], the inhibition at 20 µM is 81% and the IC50 is 4.3 µM.

For the molecule `O=C(O)CC1(CC(=O)O)OCCc2c1[nH]c1cccc(Cl)c21` [Example 71, [1-(carboxymethyl)-5-chloro-1,3,4,9-tetrahydropyrano[3,4-b]indol-1-yl]acetic acid], the inhibition at 20 µM worked out at 45% and the IC50 was over 5 µM.

As a reminder, the IC50 is the concentration that inhibits the measured activity by half.
